Measurements as given in US20150141437A1, “AMIDOPHENOXYPROPANOLAMINES” (MEDIZINISCHE UNIVERSITÄT WIEN, priority 2012, published 2015).
pIC50: −log10 of the molar value.

Tests used:
Assay type in all cases: cell-based
[1] = system: P. falciparum 3D7 (CQ-sensitive); test: HRP2-based ELISA growth inhibition, 3D7 strain; conditions: Plasmodium falciparum, unmarked values: HRP II ELISA, 72 h
Text: (§1) Highly sensitive HRP2-based ELISA and [^3H]-hypoxanthine incorporation assay were used as markers for inhibition of parasite growth as previously described (12, 14). A solvent control and a chloroquine (CQ) control were included in the HRP2-based ELISA. CQ, lumefantrine and artesunate were included as controls in the [^3H]-hypoxanthine assay series.
(§2) The assay protocol of the HRP2-based ELISA is described in more detail in the following paragraphs.
(§3) The P. falciparum clones were maintained in continuous culture as described previously (10). Briefly, 3D7 (CQ-sensitive), NF54, and K1 (CQ-resistant) P. falciparum clones were obtained from MR4/American Type Culture Collection, Manassas, Va., USA under the accession numbers MR4-102 (3D7), MRA-1000 (NF54), and MR4-159 (K1). P. falciparum cultures were maintained in 25 cm^2 flasks. Parasites were cultured in RPMI 1640 (Sigma Aldrich, Austria) medium containing 10% human serum at a hematocrit of 5% (blood group 0 negative) at 37° C. under an atmosphere of 5% CO2, 5% O2 and 90% N2. The medium was changed every 24 to 48 hours. The culture was diluted and fresh erythrocytes were added whenever the parasite density reached >1%.
(§4) Stock solutions of compounds of formula I were prepared in DMSO (10 mg/mL). Stock concentrations of chloroquine and lumefantrine always remained 1 mg/mL and were prepared in 70% ethanol. Coating of culture plates with compounds of formula I and controls: 96 wells culture plates were coated as described previously (11). Working standards were prepared by diluting the stock solutions in RPMI1640 to obtain the desired final concentrations. Serial three-fold dilutions (seven concentrations and one drug-free control well) of the drugs (25 μL/well) were dispensed in duplicate into standard 96-well micro culture plates. Chloroquine was included as a reference drug in all experiments.
(§5) After reaching a parasitemia of 5% or higher, 5 mL of cell medium mixture were centrifuged at 700 g for 5 minutes at room temperature (RT). Packed red cells were resuspended in 3 mL of 5% D-sorbitol (Sigma Aldrich, Austria) in water at RT and immediately centrifuged again at 700 g for 5 minutes at RT followed by three washes with 3 mL of RPMI1640 medium. […].
(§6) Samples were diluted with RPMI1640 medium containing 0.5% Albumax II (GIBCO, Invitrogen, Vienna, Austria) by adding uninfected red blood cells to 1.5% hematocrit and 0.05% parasitemia. 150 μL of this cell medium mixture was then added to each well of 96-well plates precoated with test compounds and incubated at 37° C. for 72 hours in a gas mixture containing 5% CO2, 5% O2, and 90% N2. After 72 hours the plates were frozen at −20° C. until the histidine rich protein II assay (23).
(§7) A highly sensitive HRPII ELISA was used based on two commercially available monoclonal antibodies (Immunology Consultants Laboratory, Inc., Newberg, Oreg.) directed against P. falciparum-specific HRPII: MPFM-55A, an immunoglobulin M antibody served as the primary capture antibody and HRP-conjugated MPFG-55P (Immunology Consultants Laboratory, Inc., Newberg, Oreg.) as secondary antibody. The ELISA was employed to assess growth inhibition as a measure of drug susceptibility as previously described. Optical density was measured at 450 nm using a standard ELISA plate reader (12-13).
(§8) Hyperbolic concentration response curves were fitted to the data points by nonlinear least squares using the solver add-in of the Excel software.
(§9) Indicated in TABLE 2 are the IC50 [μM] values for growth inhibition of the 3D7 (NF54) and K1 strains of P. falciparum for the compounds of formula I indicated with their formula numbers in TABLE 2. Unmarked IC50 values for K1 and 3D7 strains of P. falciparum have been determined by HRP II enzyme linked immunosorbent assay (ELISA) as described above. […]

[2] = system: P. falciparum K1 (CQ-resistant); test: HRP2-based ELISA growth inhibition, K1 strain; conditions: Plasmodium falciparum, unmarked values: HRP II ELISA, 72 h
Text: as §1, §2, §3, §4, §5, §6, §7, §8, §9

[3] = system: P. falciparum NF54 (CQ sensitive); test: [3H]-hypoxanthine incorporation assay, NF54 strain; conditions: Plasmodium falciparum, values marked with asterisk: [3H]-hypoxanthine assay, read-out: IC50 growth inhibition NF54*
[4] = system: P. falciparum K1 (CQ-resistant); test: [3H]-hypoxanthine incorporation assay, K1 strain; conditions: Plasmodium falciparum, values marked with asterisk: [3H]-hypoxanthine assay, read-out: IC50 growth inhibition K1 (*)

| pIC50 [1] | pIC50 [2] | pIC50 [3] | pIC50 [4] | Compound |
| --- | --- | --- | --- | --- |
| 5.61 | 6.29 |  |  | O=C(NCc1ccccc1)c1ccccc1OCC(O)CNC12CC3CC(CC(C3)C1)C2 (stereo not shown) [Compound I-1, 2-[3-(Adamantan-1-ylamino)-2-hydroxy-propoxy]-N-benzyl-benzamide] |
| 6.17 | 6.36 |  |  | COc1ccccc1CNC(=O)c1ccccc1OCC(O)CNC12CC3CC(CC(C3)C1)C2 (stereo not shown) [Compound I-2, 2-[3-(Adamantan-1-ylamino)-2-hydroxy-propoxy]-N-(2-methoxy-benzyl)-benzamide] |
| 6.92 | 7.54 |  |  | O=C(NCc1ccccc1)c1ccccc1OCC(O)CNC1C2CC3CC(C2)CC1C3 (stereo not shown) [Compound I-6, 2-[3-(Adamantan-2-ylamino)-2-hydroxy-propoxy]-N-benzyl-benzamide] |
| 6.70 | 7.00 |  |  | COc1ccccc1CNC(=O)c1ccccc1OCC(O)CNC1C2CC3CC(C2)CC1C3 (stereo not shown) [Compound I-7, 2-[3-(Adamantan-2-ylamino)-2-hydroxy-propoxy]-N-(2-methoxy-benzyl)-benzamide] |
| 6.85 | 7.89 |  |  | COc1ccc(CNC(=O)c2ccccc2OCC(O)CNC2C3CC4CC(C3)CC2C4)cc1 (stereo not shown) [Compound I-8, 2-[3-(Adamantan-2-ylamino)-2-hydroxy-propoxy]-N-(4-methoxy-benzyl)-benzamide] |
| 6.58 | 7.54 |  |  | O=C(NCCc1ccccc1)c1ccccc1OCC(O)CNC1C2CC3CC(C2)CC1C3 (stereo not shown) [Compound I-9, 2-[3-(Adamantan-2-ylamino)-2-hydroxy-propoxy]-N-phenethyl-benzamide] |
| 6.73 | 7.35 |  |  | O=C(NCCCc1ccccc1)c1ccccc1OCC(O)CNC1C2CC3CC(C2)CC1C3 (stereo not shown) [Compound I-11, 2-[3-(Adamantan-2-ylamino)-2-hydroxy-propoxy]-N-(3-phenyl-propyl)-benzamide] |
| 6.21 | 7.04 |  |  | CCCNC(=O)c1ccccc1OCC(O)CNC1C2CC3CC(C2)CC1C3 (stereo not shown) [Compound I-12, 2-[3-(Adamantan-2-ylamino)-2-hydroxy-propoxy]-N-propyl-benzamide] |
| 6.34 | 6.77 |  |  | CN(CC(O)COc1ccccc1C(=O)NCc1ccccc1)C1C2CC3CC(C2)CC1C3 (stereo not shown) [Compound I-13, 2-[3-(Adamantan-2-yl-methyl-amino)-2-hydroxy-propoxy]-N-benzyl-benzamide] |
| 6.88 | 7.27 |  |  | CN(CC(O)COc1ccccc1C(=O)NCc1ccc(C(F)(F)F)cc1)C1C2CC3CC(C2)CC1C3 (stereo not shown) [Compound I-16, 2-[3-(Adamantan-2-yl-methyl-amino)-2-hydroxy-propoxy]-N-(4-trifluoromethyl-benzyl)-benzamide] |
| 5.92 | 6.68 |  |  | CCCN(CC(O)COc1ccccc1C(=O)NCc1ccccc1)C1C2CC3CC(C2)CC1C3 (stereo not shown) [Compound I-17, 2-[3-(Adamantan-2-yl-propyl-amino)-2-hydroxy-propoxy]-N-benzyl-benzamide] |
| 5.80 | 6.46 |  |  | CCCN(CC(O)COc1ccccc1C(=O)NCc1ccccc1OC)C1C2CC3CC(C2)CC1C3 (stereo not shown) [Compound I-18, 2-[3-(Adamantan-2-yl-propyl-amino)-2-hydroxy-propoxy]-N-(2-methoxy-benzyl)-benzamide] |
| 6.82 | 7.40 |  |  | CCCCCN(CC(O)COc1ccccc1C(=O)NCc1ccccc1)C1C2CC3CC(C2)CC1C3 (stereo not shown) [Compound I-19, 2-[3-(Adamantan-2-yl-pentyl-amino)-2-hydroxy-propoxy]-N-benzyl-benzamide] |
| 5.90 | 7.00 |  |  | O=C(NCc1ccccc1)c1ccccc1OCC(O)CN(C1CC1)C1C2CC3CC(C2)CC1C3 (stereo not shown) [Compound I-20, 2-[3-(Adamantan-2-yl-cyclopropyl-amino)-2-hydroxy-propoxy]-N-benzyl-benzamide] |
| 5.38 | 6.21 |  |  | COc1ccccc1CN(CC(O)COc1ccccc1C(=O)NCc1ccccc1)C1C2CC3CC(C2)CC1C3 (stereo not shown) [Compound I-21, 2-{3-[Adamantan-2-yl-(2-methoxy-benzyl)-amino]-2-hydroxy-propoxy}-N-benzyl-benzamide] |
| 6.43 | 6.60 |  |  | O=C(NCc1ccccc1)c1ccccc1OCC(O)CN(CCc1ccccc1)C1C2CC3CC(C2)CC1C3 (stereo not shown) [Compound I-22, 2-[3-(Adamantan-2-yl-phenethyl-amino)-2-hydroxy-propoxy]-N-benzyl-benzamide] |
|  |  | 7.55 | 8.15 | O=C(Nc1ccc(Br)cc1)c1ccccc1OCC(O)CNC12CC3CC(CC(C3)C1)C2 (stereo not shown) [Compound I-75, 2-[3-(Adamantan-1-ylamino)-2-hydroxy-propoxy]-N-(4-bromo-phenyl)-benzamide] |
|  |  | 6.59 | 6.98 | O=C(Nc1ccccc1F)c1ccccc1OCC(O)CN1CCC(c2ccccc2)CC1 (stereo not shown) [Compound I-77, N-(2-Fluoro-phenyl)-2-[2-hydroxy-3-(4-phenyl-piperidin-1-yl)-propoxy]-benzamide] |
|  |  | 6.69 | 7.13 | O=C(Nc1ccccc1F)c1ccccc1OCC(O)CN1CCC(Cc2ccccc2)CC1 (stereo not shown) [Compound I-78, 2-[3-(4-Benzyl-piperidin-1-yl)-2-hydroxy-propoxy]-N-(2-fluoro-phenyl)-benzamide] |
|  |  | 6.59 | 7.08 | O=C(Nc1ccccc1F)c1ccccc1OCC(O)CN1CCN(C(c2ccccc2)c2ccccc2)CC1 (stereo not shown) [Compound I-79, 2-[3-(4-Benzhydryl-piperazin-1-yl)-2-hydroxy-propoxy]-N-(2-fluoro-phenyl)-benzamide] |
|  |  | 7.33 | 7.96 | Cc1ccc(NC(=O)c2ccccc2OCC(O)CN2CCC(c3ccccc3)CC2)cc1 (stereo not shown) [Compound I-80, 2-[2-Hydroxy-3-(4-phenyl-piperidin-1-yl)-propoxy]-N-p-tolyl-benzamide] |
|  |  | 7.44 | 8.07 | Cc1ccc(NC(=O)c2ccccc2OCC(O)CN2CCC(Cc3ccccc3)CC2)cc1 (stereo not shown) [Compound I-81, 2-[3-(4-Benzyl-piperidin-1-yl)-2-hydroxy-propoxy]-N-p-tolyl-benzamide] |
|  |  | 7.62 | 8.23 | Cc1ccc(NC(=O)c2ccccc2OCC(O)CN2CCN(C(c3ccccc3)c3ccccc3)CC2)cc1 (stereo not shown) [Compound I-82, 2-[3-(4-Benzhydryl-piperazin-1-yl)-2-hydroxy-propoxy]-N-p-tolyl-benzamide] |
|  |  | 7.80 | 8.46 | O=C(Nc1cccc(C(F)(F)F)c1)c1cc(Cl)ccc1OCC(O)CN1CCC(c2ccccc2)CC1 (stereo not shown) [Compound I-83, 5-Chloro-2-[2-hydroxy-3-(4-phenyl-piperidin-1-yl)-propoxy]-N-(3-trifluoromethyl-phenyl)-benzamide] |
|  |  | 8.42 | 9.00 | O=C(Nc1cccc(C(F)(F)F)c1)c1cc(Cl)ccc1OCC(O)CN1CCC(Cc2ccccc2)CC1 (stereo not shown) [Compound I-84, 2-[3-(4-Benzyl-piperidin-1-yl)-2-hydroxy-propoxy]-5-chloro-N-(3-trifluoromethyl-phenyl)-benzamide] |
|  |  | 8.24 | 8.92 | O=C(Nc1cccc(C(F)(F)F)c1)c1cc(Cl)ccc1OCC(O)CN1CCN(C(c2ccccc2)c2ccccc2)CC1 (stereo not shown) [Compound I-85, 2-[3-(4-Benzhydryl-piperazin-1-yl)-2-hydroxy-propoxy]-5-chloro-N-(3-trifluoromethyl-phenyl)-benzamide] |
